Experimental findings from patent publication US20240252651A1, “METHOD OF DELIVERING NUCLEIC ACIDS INTO CELLS” (GUANGZHOU LIDE BIOMEDICINE TECHNOLOGY CO., LTD., priority 2021, published 2024) are described below.

The test system of assay [1] is Hela cells. Kind of assay: Transfection of GFP-expressing plasmid DNA in Hela cells (flow cytometer). It counts as cell-based, human. The conditions noted are these: plasmid DNA 0.5 μg/well, material 0.25 to 8 μg/well (dosages per FIG. 4), 24 h. As to the method:
In this experiment, with GFP-expressing plasmid DNA as a reporter gene, a gene transfection efficiency of a cationic lipid analog material in Hela cells was detected. A specific method was as follows:
Hela cells were inoculated in a 24-well plate and cultured in an incubator for 12 h; each of different cationic lipid analog materials (0.25 μg/well to 8 μg/well) was mixed with GFP-expressing plasmid DNA (0.5 μg/well) in 40 μL of a sodium acetate buffer (25 mM, pH 5.2), and resulting mixtures each were allowed to stand for 10 min and then diluted with 460 μL of an Opti-MEM medium to obtain plasmid DNA-loaded cationic lipid analog complex particle solutions; a medium for the Hela cells in the plate was removed, then the HeLa cells were washed once with PBS, and the complex particle solutions were added; and the cells were cultured for 24 h, and then a plasmid DNA transfection efficiency in cells was analyzed by a flow cytometer. A commercial gene transfection reagent Lipofectamine 2000 was adopted as a positive control.
In general terms: A flow cytometer gives signals particle by particle.

Assay [2] relates to DC 2.4 cells. The assay is described as follows: Transfection of eGFP-mRNA in DC 2.4 cells (FCM and LSCM). The format is cell-based, mouse. The conditions noted are these: mRNA 0.2 μg/well, material 0.25 to 2 μg/well (dosages per FIG. 7), 24 h. The method, then:
In this experiment, with eGFP-mRNA as model mRNA, an mRNA transfection efficiency of a cationic lipid analog material in DC 2.4 cells was detected. A specific operation method was as follows:
DC 2.4 cells were inoculated in a 48-well plate and cultured in an incubator for 12 h; each of different cationic lipid analog materials (0.25 μg/well to 2 μg/well) was mixed with cGFP-expressing mRNA (0.2 μg/well) in 20 μL of a sodium acetate buffer (25 mM, pH 5.2), and resulting mixtures each were allowed to stand for 10 min and then diluted with 230 μL of a Opti-MEM medium to obtain mRNA-loaded complex particle solutions; a medium for the […] were washed once with PBS, and the complex particle solutions were added; and the cells were cultured for 24 h, an mRNA transfection efficiency in cells was observed by FCM and LSCM. A commercial gene transfection reagent Lipofectamine 2000 was adopted as a positive control.

Assay [3] deals with Hela cells. Kind of assay: Transfection of luciferase-expressing plasmid DNA in HeLa cells (luciferase expression). It counts as cell-based, human. The conditions noted are these: plasmid DNA 0.5 μg, 24 h, luciferase expression level, FIG. 5. As to the method:
In this example, with luciferase-expressing plasmid DNA as a reporter gene, a gene transfection efficiency of a cationic lipid analog material in HeLa cells was detected. A specific operation method was as follows: Hela cells were inoculated in a 96-well plate and cultured in an incubator for 12 h; each of different cationic lipid analog materials was mixed with luciferase-expressing plasmid DNA (0.5 μg) in 40 μL of a sodium acetate buffer (25 mM, pH 5.2), and resulting mixtures each were allowed to stand for 10 min and then diluted with 460 μL of an Opti-MEM medium to obtain plasmid DNA-loaded cationic lipid analog complex particle solutions; a medium for the Hela cells in the plate was removed, then the Hela cells were washed once with PBS, and the complex particle solutions were added in a volume of 125 μL; the cells were cultured for 24 h, then a resulting culture supernatant was discarded, and the cells were fully lysed; and a substrate was added at 50 μl/well, and an expression level of luciferase was detected by a multi-mode microplate reader.

The structures appear in SMILES notation. “Also recorded” adds a separate entry of the source.

For `CCCCCCCCCCCCCCCC(=O)N(CCC1CCCN1C)C(C(=O)NCCOCCOCCNC(=O)C(C(C)C)N(CCC1CCCN1C)C(=O)CCCCCCCCCCCCCCC)C(C)C` (centres unmarked) [I2R11C16A1], the “transfection efficiency of GFP-expressing plasmid DNA, compared with commercial transfection reagent Lipofectamine 2000” value in assay [1] is recorded as “reaches or is higher than; also recorded: equivalent to or higher than”. Besides, in assay [2] (FIG. 7-9), the “mRNA transfection efficiency (eGFP-mRNA), compared with Lipofectamine 2000” value is given as “high transfection efficiency; also recorded: equivalent to or higher than”.

Consider `CCCCCCCCCCCCCCCC(=O)N(CCN(C)C)C(C(=O)NCCOCCOCCNC(=O)C(C(C)C)N(CCN(C)C)C(=O)CCCCCCCCCCCCCCC)C(C)C` (centres unmarked) [I2R1C16A1], for which the “transfection efficiency of GFP-expressing plasmid DNA, compared with commercial transfection reagent Lipofectamine 2000” value in assay [1] is “reaches or is higher than; also recorded: equivalent to or higher than”. Also, the “mRNA transfection efficiency (eGFP-mRNA), compared with Lipofectamine 2000” value in assay [2] (FIG. 7-9) was “high transfection efficiency; also recorded: equivalent to or higher than”. Moreover, the “transfection efficiency of luciferase-expressing plasmid DNA, compared with Lipofectamine 2000” value in assay [3] is listed as “equivalent to or higher than”.

Turning to `CCCCCCCCCCCCCCCCCC(=O)N(CCCN(C)C)C(C(=O)NCCCCCCNC(=O)C(C(C)C)N(CCCN(C)C)C(=O)CCCCCCCCCCCCCCCCC)C(C)C` (centres unmarked) [I1R2C18A1], the “mRNA transfection efficiency (eGFP-mRNA), compared with Lipofectamine 2000” value in assay [2] (FIG. 7-9, listed as 11R2C18A1) is on record as “high transfection efficiency; also recorded: equivalent to or higher than”.

Turning to `CCCCCCCC/C=C\CCCCCCCC(=O)N(CCC1CCCN1C)C(C(=O)NCCOCCOCCNC(=O)C(C(C)C)N(CCC1CCCN1C)C(=O)CCCCCCC/C=C\CCCCCCCC)C(C)C` (centres unmarked) [I2R11C18-1A1], in assay [1], the “transfection efficiency of GFP-expressing plasmid DNA, compared with commercial transfection reagent Lipofectamine 2000” value was “reaches or is higher than; also recorded: equivalent to or higher than”. Moreover, in assay [2] (FIG. 7-9), the “mRNA transfection efficiency (eGFP-mRNA), compared with Lipofectamine 2000” value is reported as “high transfection efficiency; also recorded: equivalent to or higher than”.

Turning to `CCCCCCCC/C=C\CCCCCCCC(=O)N(CCN(C)C)C(C(=O)NCCOCCOCCNC(=O)C(C(C)C)N(CCN(C)C)C(=O)CCCCCCC/C=C\CCCCCCCC)C(C)C` (centres unmarked) [I2R1C18-1A1], the “transfection efficiency of GFP-expressing plasmid DNA, compared with commercial transfection reagent Lipofectamine 2000” value in assay [1] was “reaches or is higher than; also recorded: equivalent to or higher than”. Moreover, the “mRNA transfection efficiency (eGFP-mRNA), compared with Lipofectamine 2000” value in assay [2] (FIG. 7-9) was “high transfection efficiency; also recorded: equivalent to or higher than”. In addition, the “transfection efficiency of luciferase-expressing plasmid DNA, compared with Lipofectamine 2000” value in assay [3] is recorded as “equivalent to or higher than”.

As for `CCCCCCCCCCCCCCCC(=O)N(CCCN(CC)CC)C(C(=O)NCCOCCOCCNC(=O)C(C(C)C)N(CCCN(CC)CC)C(=O)CCCCCCCCCCCCCCC)C(C)C` (centres unmarked) [I2R3C16A1], the “transfection efficiency of GFP-expressing plasmid DNA, compared with commercial transfection reagent Lipofectamine 2000” value in assay [1] is on record as “reaches or is higher than; also recorded: equivalent to or higher than”. Moreover, the “mRNA transfection efficiency (eGFP-mRNA), compared with Lipofectamine 2000” value in assay [2] (FIG. 7-9) is on record as “high transfection efficiency; also recorded: equivalent to or higher than”. In addition, the “transfection efficiency of luciferase-expressing plasmid DNA, compared with Lipofectamine 2000” value in assay [3] is on record as “equivalent to or higher than”.

As for `CCCCCCCCCCCCCCCCCC(=O)N(CCC1CCCN1C)C(C(=O)NCCCCCCNC(=O)C(C(C)C)N(CCC1CCCN1C)C(=O)CCCCCCCCCCCCCCCCC)C(C)C` (centres unmarked) [I1R11C18A1], in assay [2] (FIG. 7-9, listed as 11R11C18A1), the “mRNA transfection efficiency (eGFP-mRNA), compared with Lipofectamine 2000” value was “high transfection efficiency; also recorded: equivalent to or higher than”.

`CCCCC/C=C\C/C=C\CCCCCCCC(=O)N(CCN(C)C)C(C(=O)NCCOCCOCCNC(=O)C(C(C)C)N(CCN(C)C)C(=O)CCCCCCC/C=C\C/C=C\CCCCC)C(C)C` (centres unmarked) [I2R1C18-2A1]: the “transfection efficiency of GFP-expressing plasmid DNA, compared with commercial transfection reagent Lipofectamine 2000” value in assay [1] is “reaches or is higher than; also recorded: equivalent to or higher than”.

For `CCCCCCCCCCCCCC(=O)N(CCCN(C)C)C(C(=O)NCCOCCOCCNC(=O)C(C(C)C)N(CCCN(C)C)C(=O)CCCCCCCCCCCCC)C(C)C` (centres unmarked) [I2R2C14A1], the “transfection efficiency of GFP-expressing plasmid DNA, compared with commercial transfection reagent Lipofectamine 2000” value in assay [1] is recorded as “reaches or is higher than; also recorded: equivalent to or higher than”. Besides, the “mRNA transfection efficiency (eGFP-mRNA), compared with Lipofectamine 2000” value in assay [2] (FIG. 7-9) is given as “high transfection efficiency; also recorded: equivalent to or higher than”.

`CCCCCCCCCCCCCC(=O)N(CCCN(C)C)C(C(=O)NCCCCCCNC(=O)C(C(C)C)N(CCCN(C)C)C(=O)CCCCCCCCCCCCC)C(C)C` (centres unmarked) [I1R2C14A1]: the “transfection efficiency of GFP-expressing plasmid DNA, compared with commercial transfection reagent Lipofectamine 2000” value in assay [1] is “reaches or is higher than”; in assay [1] (listed as 11R2C14A1) it was “equivalent to or higher than”. Moreover, the “mRNA transfection efficiency (eGFP-mRNA), compared with Lipofectamine 2000” value in assay [2] (FIG. 7-9) is “high transfection efficiency”; in assay [2] (FIG. 7-9, listed as 11R2C14A1) it was “equivalent to or higher than”. The “transfection efficiency of luciferase-expressing plasmid DNA, compared with Lipofectamine 2000” value in assay [3] is on record as “equivalent to or higher than”.

In the case of `CCCCCCCCCCCCCC(=O)N(CCCN(CC)CC)C(C(=O)NCCOCCOCCNC(=O)C(C(C)C)N(CCCN(CC)CC)C(=O)CCCCCCCCCCCCC)C(C)C` (centres unmarked) [I2R3C14A1], the “mRNA transfection efficiency (eGFP-mRNA), compared with Lipofectamine 2000” value in assay [2] (FIG. 7-9) is “high transfection efficiency; also recorded: equivalent to or higher than”.

As to `CCCCCCCC/C=C\CCCCCCCC(=O)N(CCCN(C)C)C(C(=O)NCCCCCCNC(=O)C(C(C)C)N(CCCN(C)C)C(=O)CCCCCCC/C=C\CCCCCCCC)C(C)C` (centres unmarked) [I1R2C18-1A1], in assay [2] (FIG. 7-9, listed as 11R2C18-1A1), the “mRNA transfection efficiency (eGFP-mRNA), compared with Lipofectamine 2000” value is “high transfection efficiency; also recorded: equivalent to or higher than”.

On to `CCCCCCCCCCCCCC(=O)N(CCC1CCCN1C)C(C(=O)NCCOCCOCCNC(=O)C(C(C)C)N(CCC1CCCN1C)C(=O)CCCCCCCCCCCCC)C(C)C` (centres unmarked) [I2R11C14A1], for which the “transfection efficiency of GFP-expressing plasmid DNA, compared with commercial transfection reagent Lipofectamine 2000” value in assay [1] is reported as “reaches or is higher than; also recorded: equivalent to or higher than”. For the same compound, the “mRNA transfection efficiency (eGFP-mRNA), compared with Lipofectamine 2000” value in assay [2] (FIG. 7-9) is reported as “high transfection efficiency; also recorded: equivalent to or higher than”.

In the case of `CCCCCCCCCCCCCCCC(=O)N(CCCN(C)C)C(C(=O)NCCCCCCNC(=O)C(C(C)C)N(CCCN(C)C)C(=O)CCCCCCCCCCCCCCC)C(C)C` (centres unmarked) [I1R2C16A1], in assay [2] (FIG. 7-9, listed as 11R2C16A1), the “mRNA transfection efficiency (eGFP-mRNA), compared with Lipofectamine 2000” value is reported as “high transfection efficiency; also recorded: equivalent to or higher than”.

Consider `CCCCCCCCCCCCCCCCCC(=O)N(CCC1CCCN1C)C(C(=O)NCCOCCOCCNC(=O)C(C(C)C)N(CCC1CCCN1C)C(=O)CCCCCCCCCCCCCCCCC)C(C)C` (centres unmarked) [I2R11C18A1], for which, in assay [1], the “transfection efficiency of GFP-expressing plasmid DNA, compared with commercial transfection reagent Lipofectamine 2000” value is recorded as “reaches or is higher than; also recorded: equivalent to or higher than”. In addition, in assay [2] (FIG. 7-9), the “mRNA transfection efficiency (eGFP-mRNA), compared with Lipofectamine 2000” value was “high transfection efficiency; also recorded: equivalent to or higher than”.

In the case of `CCCCCCCCCCCCCCCC(=O)N(CCC1CCCN1C)C(C(=O)NCCCCCCNC(=O)C(C(C)C)N(CCC1CCCN1C)C(=O)CCCCCCCCCCCCCCC)C(C)C` (centres unmarked) [I1R11C16A1], the “mRNA transfection efficiency (eGFP-mRNA), compared with Lipofectamine 2000” value in assay [2] (FIG. 7-9) is reported as “high transfection efficiency; also recorded: equivalent to or higher than”.

For the compound `CCCCC/C=C\C/C=C\CCCCCCCC(=O)N(CCCN(C)C)C(C(=O)NCCCCCCNC(=O)C(C(C)C)N(CCCN(C)C)C(=O)CCCCCCC/C=C\C/C=C\CCCCC)C(C)C` (centres unmarked) [I1R2C18-2A1], the “transfection efficiency of GFP-expressing plasmid DNA, compared with commercial transfection reagent Lipofectamine 2000” value in assay [1] was “reaches or is higher than”; in assay [1] (listed as 11R2C18-2A1) it was “equivalent to or higher than”. Also, the “mRNA transfection efficiency (eGFP-mRNA), compared with Lipofectamine 2000” value in assay [2] (FIG. 7-9) is given as “equivalent to or higher than”; in assay [2] (FIG. 7-9, listed as 11R2C18-2A1) it was “high transfection efficiency”.
